According to US9796733B2, “Imidazo-pyrazine derivatives useful as soluble guanylate cyclase activators” (Merck Sharp & Dohme Corp., priority 2014, dated 2017):

Target: T1, sGC α1/β1 heterodimer (Homo sapiens, UniProt Q02108+Q02153)
T1 construct: expressed in transfected cells; host or cells: CHO-K1 (clone #7, CHO-K1/sGC)
T1 sequence (Q02108 1-690): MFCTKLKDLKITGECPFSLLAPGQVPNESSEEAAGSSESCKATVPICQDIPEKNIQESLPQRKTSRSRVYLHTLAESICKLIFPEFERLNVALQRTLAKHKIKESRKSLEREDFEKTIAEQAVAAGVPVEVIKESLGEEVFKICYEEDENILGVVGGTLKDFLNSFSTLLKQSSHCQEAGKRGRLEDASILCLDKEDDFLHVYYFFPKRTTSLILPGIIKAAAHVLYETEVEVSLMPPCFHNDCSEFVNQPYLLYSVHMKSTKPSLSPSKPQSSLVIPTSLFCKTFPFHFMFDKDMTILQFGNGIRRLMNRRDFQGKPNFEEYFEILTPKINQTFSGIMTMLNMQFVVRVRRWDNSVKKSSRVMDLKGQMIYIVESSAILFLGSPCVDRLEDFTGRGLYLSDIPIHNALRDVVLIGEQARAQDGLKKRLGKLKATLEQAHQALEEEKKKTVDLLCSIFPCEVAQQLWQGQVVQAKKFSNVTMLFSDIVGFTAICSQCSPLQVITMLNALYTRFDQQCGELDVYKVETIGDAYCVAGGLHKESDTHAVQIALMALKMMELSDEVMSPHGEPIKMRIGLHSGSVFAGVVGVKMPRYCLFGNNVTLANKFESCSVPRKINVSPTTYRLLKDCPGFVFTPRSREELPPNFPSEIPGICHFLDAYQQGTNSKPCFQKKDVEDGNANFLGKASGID
T1 sequence (Q02153 1-619): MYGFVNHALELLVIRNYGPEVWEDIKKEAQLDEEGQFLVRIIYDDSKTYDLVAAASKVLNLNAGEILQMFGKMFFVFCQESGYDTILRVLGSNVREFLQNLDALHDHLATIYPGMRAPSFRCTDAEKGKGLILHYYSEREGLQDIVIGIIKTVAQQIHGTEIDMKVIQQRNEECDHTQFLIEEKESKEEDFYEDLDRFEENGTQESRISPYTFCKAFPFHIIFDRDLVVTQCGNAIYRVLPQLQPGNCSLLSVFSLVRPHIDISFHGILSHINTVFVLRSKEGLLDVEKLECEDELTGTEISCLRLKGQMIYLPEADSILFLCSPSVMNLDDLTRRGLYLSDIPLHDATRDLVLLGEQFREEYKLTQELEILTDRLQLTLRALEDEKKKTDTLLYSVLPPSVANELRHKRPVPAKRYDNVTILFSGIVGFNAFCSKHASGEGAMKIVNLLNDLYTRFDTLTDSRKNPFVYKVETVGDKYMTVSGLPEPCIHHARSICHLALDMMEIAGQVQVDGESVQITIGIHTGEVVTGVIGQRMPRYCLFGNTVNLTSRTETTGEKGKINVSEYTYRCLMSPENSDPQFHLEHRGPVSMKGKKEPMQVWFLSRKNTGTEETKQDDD
Assay: Cell-based sGC functional assay (CASA assay): cGMP generation in CHO-K1/sGC cells, HTRF detection
Conditions: for Emax: CHO-K1, percent activation relative to standard Compound A in CHO-K1/sGC cells, read-out: % Act.; for EC50: inflection point (IP) of cGMP generation in CHO-K1/sGC cells, 4P fit, activity expressed as percentage of Compound A
Outline: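 Stable CHO-K1/sGC cells in EBSS buffer with 5 mM MgCl2, 0.05% BSA and 0.5 mM IBMX were incubated with compound (2.5% DMSO final) ±1 μM DETA-NO for 1 hr at 37° C. cGMP was measured by HTRF. Activation is expressed as % of reference HDA Compound A maximum, with IP and max fold induction from a 4P fit.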

| Compound | Emax | EC50 | % Act. (percent activation relative to standard Compound A in CHO-K1/sGC cells) |
| --- | --- | --- | --- |
| CCCCc1nc(-c2nc(N)c3c(n2)NC(=O)C3(C)c2ccc(F)cn2)cn2cc(C)nc12 (stereo not shown) [Example 164B, 4-amino-2-(8-butyl-2-methylimidazo[1,2-a]pyrazin-6-yl)-5-(5-fluoropyridin-2-yl)-5-methyl-5H-pyrrolo[2,3-d]pyrimidin-6(7H)-one] | 93% | 81 nM |  |
| CCC1(C)C(=O)Nc2nc(-c3cn4ccnc4c(Cc4ccccc4)n3)nc(N)c21 (single isomer, unassigned) [Example 84B, 4-amino-2-(8-benzylimidazo[1,2-a]pyrazin-6-yl)-5-ethyl-5-methyl-5H-pyrrolo[2,3-d]pyrimidin-6(7H)-one] | 100% | 180 nM |  |
| CC(F)(F)c1ccc(C2(C)C(=O)Nc3nc(-c4cn5ccnc5c(CCC(F)(F)C(F)(F)F)n4)nc(N)c32)cn1 (single isomer, unassigned) [Example 379A, 4-amino-5-(6-(1,1-difluoroethyl)pyridin-3-yl)-5-methyl-2-(8-(3,3,4,4,4-pentafluorobutyl)imidazo[1,2-a]pyrazin-6-yl)-5H-pyrrolo[2,3-d]pyrimidin-6(7H)-one] | 87% | 152 nM |  |
| CC1(c2ccc(F)cc2)C(=O)Nc2nc(-c3cn4cc(C#N)nc4c(CCC(F)(F)C(F)(F)F)n3)nc(N)c21 (stereo not shown) [Example 275A, 6-(4-Amino-5-(4-fluorophenyl)-5-methyl-6-oxo-6,7-dihydro-5H-pyrrolo[2,3-d]pyrimidin-2-yl)-8-(3,3,4,4,4-pentafluorobutyl)imidazo[1,2-a]pyrazine-2-carbonitrile] | 98% | 89 nM |  |
| CC1(c2ccc(F)cn2)C(=O)Nc2nc(-c3cn4c(Br)cnc4c(CCC(F)(F)C(F)(F)F)n3)nc(N)c21 (stereo not shown) [Example 262B, 4-Amino-2-(3-bromo-8-(3,3,4,4,4-pentafluorobutyl)imidazo[1,2-a]pyrazin-6-yl)-5-(5-fluoropyridin-2-yl)-5-methyl-5H-pyrrolo[2,3-d]pyrimidin-6(7H)-one] | 105% | 236 nM |  |
| CC1(c2ccccc2)C(=O)Nc2nc(-c3cn4ccnc4c(Cc4ccccc4)n3)nc(N)c21 (stereo not shown) [Example 102B, 4-amino-2-(8-benzylimidazo[1,2-a]pyrazin-6-yl)-5-methyl-5-phenyl-5H-pyrrolo[2,3-d]pyrimidin-6(7H)-one] | 89% | 15 nM |  |
| CC1(c2ccccn2)C(=O)Nc2nc(-c3cn4ccnc4c(Cc4ccc(F)cc4)n3)nc(N)c21 (stereo not shown) [Example 103B, 4-amino-2-(8-(4-fluorobenzyl)imidazo[1,2-a]pyrazin-6-yl)-5-methyl-5-(pyridin-2-yl)-5H-pyrrolo[2,3-d]pyrimidin-6(7H)-one] | 85% | 18 nM |  |
| COCCNc1nc(-c2cn3ccnc3c(CCC(F)(F)F)n2)nc2c1C(C)(c1ccc(Cl)cc1)C(=O)N2 (stereo not shown) [Example 296A, 5-(4-chlorophenyl)-4-((2-methyoxyethyl)amino)-5-methyl-2-(8-(3,3,3-trifluoropropyl)imidazo[1,2-a]pyrazin-6-yl)-5H-pyrrolo[2,3-d]pyrimidin-6(7H)-one] | 77% | 142 nM |  |
| CC1(C)C(=O)Nc2nc(-c3cn4ccnc4c(Cc4ccc(F)cc4)n3)nc(N)c21 [Example 72, 4-amino-2-(8-(4-fluorobenzyl)imidazo[1,2-a]pyrazin-6-yl)-5,5-dimethyl-5H-pyrrolo[2,3-d]pyrimidin-6(7H)-one] | 126% | 342 nM |  |
| CC1(C(=O)NC2CC2)C(=O)Nc2nc(-c3cn4ccnc4c(Cc4cccc(F)c4)n3)nc(N)c21 (single isomer, unassigned) [Example 31A, 4-Amino-N-cyclopropyl-2-(8-(3-fluorobenzyl)imidazo[1,2-a]pyrazin-6-yl)-5-methyl-6-oxo-6,7-dihydro-5H-pyrrolo[2,3-d]pyrimidine-5-carboxamide] | 141% | 46 nM |  |
| CC1(c2ccc(Cl)cc2)C(=O)Nc2nc(-c3cn4ccnc4cn3)nc(NCC(F)(F)F)c21 (stereo not shown) [Example 288A, 5-(4-chlorophenyl)-2-(imidazo[1,2-a]pyrazin-6-yl)-5-methyl-4-((2,2,2-trifluoroethyl)amino)-5H-pyrrolo[2,3-d]pyrimidin-6(7H)-one] | 119% | 12 nM |  |
| CCCc1nc(-c2nc(N)c3c(n2)NC(=O)C3(C)c2ccc(F)cc2)cn2ccnc12 (stereo not shown) [Example 17A, 4-amino-5-(4-fluorophenyl)-5-methyl-2-(8-propylimidazo[1,2-a]pyrazin-6-yl)-5H-pyrrolo[2,3-d]pyrimidin-6(7H)-one] | 124% | 157 nM |  |
| Cc1cc(C2(C3CC3)C(=O)Nc3nc(-c4cn5ccnc5c(CCC(F)(F)C(F)(F)F)n4)nc(N)c32)ncc1F (single isomer, unassigned) [Example 376B, 4-amino-5-cyclopropyl-5-(5-fluoro-4-methylpyridin-2-yl)-2-(8-(3,3,4,4,4-pentafluorobutyl)imidazo[1,2-a]pyrazin-6-yl)-5H-pyrrolo[2,3-d]pyrimidin-6(7H)-one] | 127% | 180 nM |  |
| CC1(c2ccc(Cl)cc2)C(=O)Nc2nc(-c3cn4cc(C(F)(F)F)nc4c(Cc4ccccc4F)n3)nc(N)c21 (stereo not shown) [Example 151A, 4-amino-5-(4-chlorophenyl)-2-(8-(2-fluorobenzyl)-2-(trifluoromethyl)imidazo[1,2-a]pyrazin-6-yl)-5-methyl-5H-pyrrolo[2,3-d]pyrimidin-6(7H)-one] | 106% | 19 nM |  |
| CCCCc1nc(-c2nc(N)c3c(n2)NC(=O)C3(C)c2ccc(F)cn2)cn2c(C)cnc12 (stereo not shown) [Example 165B, 4-amino-2-(8-butyl-3-methylimidazo[1,2-a]pyrazin-6-yl)-5-(5-fluoropyridin-2-yl)-5-methyl-5H-pyrrolo[2,3-d]pyrimidin-6(7H)-one] | 81% | 43 nM |  |
| CCCc1nc(-c2nc(N)c3c(n2)NC(=O)C3(C)c2ccc(OC(F)(F)F)cc2)cn2ccnc12 (stereo not shown) [Example 24A, 4-amino-5-methyl-2-(8-propylimidazo[1,2-a]pyrazin-6-yl)-5-(4-(trifluoromethoxy)phenyl)-5H-pyrrolo[2,3-d]pyrimidin-6(7H)-one] | 104% | 410 nM |  |
| CC1(c2ccc(OC(F)(F)F)cc2)C(=O)Nc2nc(-c3cn4ccnc4c(CCC(F)(F)F)n3)nc(N)c21 (stereo not shown) [Example 196B, 4-amino-5-methyl-5-(4-(trifluoromethoxy)phenyl)-2-(8-(3,3,3-trifluoropropyl)imidazo[1,2-a]pyrazin-6-yl)-5H-pyrrolo[2,3-d]pyrimidin-6(7H)-one] | 106% | 267 nM |  |
| CC1(c2ccc(F)cc2)C(=O)Nc2nc(-c3cn4cc(C(F)(F)F)nc4c(Cc4cccc(F)c4F)n3)nc(N)c21 (stereo not shown) [Example 148A, 4-amino-2-(8-(2,3-difluorobenzyl)-2-(trifluoromethyl)imidazo[1,2-a]pyrazin-6-yl)-5-(4-fluorophenyl)-5-methyl-5H-pyrrolo[2,3-d]pyrimidin-6(7H)-one] | 148% | 24 nM |  |
| CC1(c2ccc(F)cc2)C(=O)Nc2nc(-c3cn4ccnc4c(CCC4CCCCC4)n3)nc(N)c21 (stereo not shown) [Example 12A, 4-amino-2-(8-(2-cyclohexylethyl)imidazo[1,2-a]pyrazin-6-yl)-5-(4-fluorophenyl)-5-methyl-5H-pyrrolo[2,3-d]pyrimidin-6(7H)-one] | 142% | 53 nM |  |
| Nc1nc(-c2cn3ccnc3c(Cc3ccc(F)cc3)n2)nc2c1C(c1ccc(Cl)cn1)(C1CC1)C(=O)N2 (single isomer, unassigned) [Example 108A, 4-amino-5-(5-chloropyridin-2-yl)-5-cyclopropyl-2-(8-(4-fluorobenzyl)imidazo[1,2-a]pyrazin-6-yl)-5H-pyrrolo[2,3-d]pyrimidin-6(7H)-one] |  | 12 nM | 121% |
